Test results: patent US20240228547A1, “POLYPEPTIDE FOR RESISTING NOVEL CORONAVIRUS AND APPLICATION THEREOF” (INSTITUTE OF MICROBIOLOGY, CHINESE ACADEMY OF SCIENCES, priority 2021, published 2024)
pIC50: −log10 of the molar value.

What was measured:
[1] = test system: pseudovirus of SARS-CoV-2 variant Beta (B.1.351); details: B.1.351 (Beta) pseudovirus; for pIC50: read-out: IC50, inhibitory effect on pseudovirus, Hela hACE2 cells
[2] = test system: SARS-COV-2 original strain and its various variants; type: cell-based
[3] = test system: pseudovirus of SARS-CoV-2 variant Kappa (B.1.617.1); details: for Increase multiple (fold increase in the inhibitory effect compared to the polypeptide P3) / pIC50: B.1.617.1 (Kappa) pseudovirus; for pIC50: read-out: IC50, inhibitory effect on pseudovirus, Hela hACE2 cells
[4] = test system: pseudovirus of SARS-CoV-2 variant Gamma (P.1); details: P.1 (Gamma) pseudovirus; for pIC50: read-out: IC50, inhibitory effect on pseudovirus, Hela hACE2 cells
[5] = test system: pseudovirus of SARS-CoV-2 variant Delta (B.1.617.2); details: B.1.617.2 (Delta) pseudovirus; for pIC50: read-out: IC50, inhibitory effect on pseudovirus, Hela hACE2 cells
[6] = test system: pseudovirus of SARS-CoV-2 variant Alpha (B.1.1.7); details: B.1.1.7 (Alpha) pseudovirus; for pIC50: read-out: IC50, inhibitory effect on pseudovirus, Hela hACE2 cells
[7] = test system: pseudovirus of SARS-CoV-2 variant D614G; details: for pIC50: pseudovirus of variant D614G

CC[C@H](C)[C@H](NC(=O)CNC(=O)[C@H](CO)NC(=O)[C@@H](NC(=O)[C@H](CC(=O)O)NC(=O)CNC(=O)[C@H](Cc1ccccc1)NC(=O)[C@H](CCCCN)NC(=O)[C@@H](N)C(C)C)[C@@H](C)CC)C(=O)N[C@@H](CC(N)=O)C(=O)N[C@@H](C)C(=O)N[C@@H](CO)C(=O)N[C@H](C(=O)N[C@H](C(=O)N[C@@H](CC(N)=O)C(=O)N[C@H](C(=O)N[C@@H](CCCCN)C(=O)N[C@@H](CCC(=O)O)C(=O)N[C@@H](CCC(=O)O)C(=O)N[C@H](C(=O)N[C@@H](CC(=O)O)C(=O)N[C@@H](CCCNC(=N)N)C(=O)N[C@@H](CC(C)C)C(=O)N[C@@H](Cc1ccc(O)cc1)C(=O)N[C@@H](CCC(=O)O)C(=O)N[C@H](C(=O)N[C@H](C(=O)N[C@@H](CCCCN)C(=O)N[C@@H](CC(N)=O)C(=O)N[C@@H](CC(C)C)C(=O)N[C@@H](CC(N)=O)C(=O)N[C@@H](CCC(=O)O)C(=O)N[C@@H](CO)C(=O)N[C@@H](CC(C)C)C(=O)N[C@H](C(=O)N[C@@H](CC(=O)O)C(=O)N[C@@H](CC(C)C)C(=O)N[C@@H](CCC(N)=O)C(=O)N[C@@H](CCC(=O)O)C(=O)N[C@@H](CC(C)C)C(=O)O)[C@@H](C)CC)C(C)C)C(C)C)[C@@H](C)CC)[C@@H](C)CC)C(C)C)C(C)C [Polypeptide P3-3]
Increase multiple (fold increase in the inhibitory effect compared to the polypeptide P3) [1]: 7.5
pIC50 [1]: 7.00
inhibitory effect compared with the polypeptide P3 (in words) [2]: most obviously improved
Increase multiple (fold increase in the inhibitory effect compared to the polypeptide P3) [3]: 1.8
pIC50 [3]: 6.37
Increase multiple (fold increase in the inhibitory effect compared to the polypeptide P3) [4]: 7.2
pIC50 [4]: 6.96
Increase multiple (fold increase in the inhibitory effect compared to the polypeptide P3) [5]: 2.4
pIC50 [5]: 6.49
Increase multiple (fold increase in the inhibitory effect compared to the polypeptide P3) [6]: 2.1
pIC50 [6]: 6.43
Increase multiple (fold increase in the inhibitory effect compared to the polypeptide P3) [7]: 5.0
pIC50 [7]: 6.80

CC[C@H](C)[C@H](N)C(=O)N[C@@H](CO)C(=O)NCC(=O)N[C@H](C(=O)N[C@@H](CC(N)=O)C(=O)N[C@@H](C)C(=O)N[C@@H](CO)C(=O)N[C@H](C(=O)N[C@H](C(=O)N[C@@H](CC(N)=O)C(=O)N[C@H](C(=O)N[C@@H](CCCCN)C(=O)N[C@@H](CCC(=O)O)C(=O)N[C@@H](CCC(=O)O)C(=O)N[C@H](C(=O)N[C@@H](CC(=O)O)C(=O)N[C@@H](CCCNC(=N)N)C(=O)N[C@@H](CC(C)C)C(=O)N[C@@H](CC(N)=O)C(=O)N[C@@H](CCC(=O)O)C(=O)N[C@H](C(=O)N[C@@H](C)C(=O)N[C@@H](CCCCN)C(=O)N[C@@H](CC(N)=O)C(=O)N[C@@H](CC(C)C)C(=O)N[C@@H](CC(N)=O)C(=O)N[C@@H](CCC(=O)O)C(=O)N[C@@H](CO)C(=O)N[C@@H](CC(C)C)C(=O)N[C@H](C(=O)N[C@@H](CC(=O)O)C(=O)N[C@@H](CC(C)C)C(=O)N[C@@H](CCC(N)=O)C(=O)N[C@@H](CCC(=O)O)C(=O)N[C@@H](CC(C)C)C(=O)O)[C@@H](C)CC)C(C)C)[C@@H](C)CC)[C@@H](C)CC)C(C)C)C(C)C)[C@@H](C)CC [Polypeptide P3-4]
Increase multiple (fold increase in the inhibitory effect compared to the polypeptide P3) [1]: 4.0
pIC50 [1]: 6.70
inhibitory effect compared with the polypeptide P3 (in words) [2]: improved to varying degrees
Increase multiple (fold increase in the inhibitory effect compared to the polypeptide P3) [3]: 1.6
pIC50 [3]: 6.32
Increase multiple (fold increase in the inhibitory effect compared to the polypeptide P3) [4]: 3.6
pIC50 [4]: 6.66
Increase multiple (fold increase in the inhibitory effect compared to the polypeptide P3) [5]: 1.4
pIC50 [5]: 6.26
Increase multiple (fold increase in the inhibitory effect compared to the polypeptide P3) [6]: 1.3
pIC50 [6]: 6.23
Increase multiple (fold increase in the inhibitory effect compared to the polypeptide P3) [7]: 2.6
pIC50 [7]: 6.52

CC[C@H](C)[C@H](N)C(=O)N[C@@H](CO)C(=O)NCC(=O)N[C@H](C(=O)N[C@@H](CC(N)=O)C(=O)N[C@@H](C)C(=O)N[C@@H](CO)C(=O)N[C@H](C(=O)N[C@H](C(=O)N[C@@H](CC(N)=O)C(=O)N[C@H](C(=O)N[C@@H](CCC(N)=O)C(=O)N[C@@H](CCCCN)C(=O)N[C@@H](CCC(=O)O)C(=O)N[C@H](C(=O)N[C@@H](CC(=O)O)C(=O)N[C@@H](CCCNC(=N)N)C(=O)N[C@@H](CC(C)C)C(=O)N[C@@H](CC(N)=O)C(=O)N[C@@H](CCC(=O)O)C(=O)N[C@H](C(=O)N[C@@H](C)C(=O)N[C@@H](CCCCN)C(=O)N[C@@H](CCC(=O)O)C(=O)N[C@@H](CC(C)C)C(=O)N[C@@H](CC(N)=O)C(=O)N[C@@H](CCC(=O)O)C(=O)N[C@@H](CO)C(=O)N[C@@H](CC(C)C)C(=O)N[C@H](C(=O)N[C@@H](CC(=O)O)C(=O)N[C@@H](CC(C)C)C(=O)N[C@@H](CCC(N)=O)C(=O)N[C@@H](CCC(=O)O)C(=O)N[C@@H](CC(C)C)C(=O)O)[C@@H](C)CC)C(C)C)[C@@H](C)CC)[C@@H](C)CC)C(C)C)C(C)C)[C@@H](C)CC [Polypeptide P3-5]
Increase multiple (fold increase in the inhibitory effect compared to the polypeptide P3) [1]: 0.6
pIC50 [1]: 5.91
inhibitory effect compared with the polypeptide P3 (in words) [2]: decreased slightly
Increase multiple (fold increase in the inhibitory effect compared to the polypeptide P3) [3]: 0.7
inhibitory effect on the Kappa variant strain compared with P3 (in words) ([3]; Kappa variant strain): slightly higher than that of P3
pIC50 [3]: 5.97
Increase multiple (fold increase in the inhibitory effect compared to the polypeptide P3) [4]: 1.3
pIC50 [4]: 6.20
Increase multiple (fold increase in the inhibitory effect compared to the polypeptide P3) [5]: 0.4
pIC50 [5]: 5.74
Increase multiple (fold increase in the inhibitory effect compared to the polypeptide P3) [6]: 0.5
pIC50 [6]: 5.84
Increase multiple (fold increase in the inhibitory effect compared to the polypeptide P3) [7]: 0.5
pIC50 [7]: 5.83
